The text below walks through data of BindingDB's records for doi:10.1021/bi100299r (Riken Systems and Structural Biology Center, 2010).

Each structure is given as a SMILES string.

The target in this assay is Lysine-specific histone demethylase 1A (Homo sapiens, UniProt O60341). The assay can be described thus: LSD1 Inhibition Assay. The source says: The kinetic inhibition parameters of LSD1 demethylase inhibition were obtained using the peroxidase-coupled reaction method.
As to `NC1CC1c1cc(F)ccc1-c1ccccc1` (centres undefined) [S1310], the IC50 is more than 50 µM. The same measure for `CC(C)COc1c(Cl)cc(Cl)cc1C1CC1N` (centres undefined) [S1502]: more than 50 µM; for `COc1cccc(COc2c(F)cc(F)cc2C2CC2N)c1` (centres undefined) [S2206]: more than 30 µM; for `NC1CC1c1cc(Cl)ccc1OCc1ccccc1` (centres undefined) [S1401]: more than 30 µM. Compound `NC1CC1c1ccc(OCc2ccccc2)cc1OCc1ccccc1` (centres undefined) [S1601] displayed an IC50 of more than 30 µM.

`NCc1cccc(COc2c(F)cc(F)cc2C2CC2N)c1` (centres undefined) [S2107] returned a half-inhibitory concentration (IC50) of 4.1 µM. Regarding `NC1CC1c1ccc(OCC2CCCCC2)cc1OCC1CCCCC1` (centres undefined) [S1603], the IC50 was more than 30 µM. The same measure for `CC(C)COc1ccc(Cl)cc1C1CC1N` (centres undefined): 14.9 µM; for `CC(C)COc1ccc(C2CC2N)c(OCC(C)C)c1` (centres undefined) [S1602]: more than 30 µM.
